Usually IC50 stands for the concentration needed to halve the response being measured. As a reminder, the Ki is a measure of affinity in units of concentration, obtained from inhibition or displacement.

Molecules are shown by their SMILES.

Test [1] addresses Bacterial leucyl aminopeptidase (Vibrio proteolyticus, UniProt Q01693). Description: Inhibition of Aeromonas proteolytica leucyl aminopeptidase using L-leucine para-notroanilide as substrate assessed as release of para-nitroaniline by Dixon plot analysis.
In another test the target is T1, Aminopeptidase N (Sus scrofa, UniProt P15145).
T1 sequence (P15145 whole entry): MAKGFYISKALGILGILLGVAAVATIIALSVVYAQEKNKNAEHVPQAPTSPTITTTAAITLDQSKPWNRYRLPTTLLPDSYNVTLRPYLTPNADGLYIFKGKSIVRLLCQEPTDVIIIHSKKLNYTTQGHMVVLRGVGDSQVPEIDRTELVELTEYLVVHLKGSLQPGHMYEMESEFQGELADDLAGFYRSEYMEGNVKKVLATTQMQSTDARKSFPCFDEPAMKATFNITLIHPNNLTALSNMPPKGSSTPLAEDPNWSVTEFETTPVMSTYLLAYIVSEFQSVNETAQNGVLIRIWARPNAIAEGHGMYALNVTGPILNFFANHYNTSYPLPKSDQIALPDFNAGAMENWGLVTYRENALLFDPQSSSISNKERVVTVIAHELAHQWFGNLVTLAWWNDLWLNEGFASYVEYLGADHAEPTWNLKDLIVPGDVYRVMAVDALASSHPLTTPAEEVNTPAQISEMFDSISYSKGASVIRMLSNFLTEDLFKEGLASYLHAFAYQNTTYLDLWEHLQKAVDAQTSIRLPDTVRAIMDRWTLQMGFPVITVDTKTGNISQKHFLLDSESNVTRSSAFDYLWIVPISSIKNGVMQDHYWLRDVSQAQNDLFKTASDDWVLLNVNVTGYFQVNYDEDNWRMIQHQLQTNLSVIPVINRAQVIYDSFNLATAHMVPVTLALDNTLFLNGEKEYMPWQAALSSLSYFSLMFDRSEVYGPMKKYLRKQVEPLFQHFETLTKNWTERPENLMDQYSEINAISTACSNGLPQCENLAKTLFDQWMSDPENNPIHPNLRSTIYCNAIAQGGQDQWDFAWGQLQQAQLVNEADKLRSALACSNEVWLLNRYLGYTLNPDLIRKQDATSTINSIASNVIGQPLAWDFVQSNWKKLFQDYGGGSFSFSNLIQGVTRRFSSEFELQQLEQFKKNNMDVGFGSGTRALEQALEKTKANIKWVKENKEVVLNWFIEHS
Description: Inhibition of porcine kidney APN using L-leucine para-notroanilide as substrate assessed as release of para-nitroaniline by Dixon plot analysis.

Bacterial leucyl aminopeptidase, sequence (Q01693 whole entry): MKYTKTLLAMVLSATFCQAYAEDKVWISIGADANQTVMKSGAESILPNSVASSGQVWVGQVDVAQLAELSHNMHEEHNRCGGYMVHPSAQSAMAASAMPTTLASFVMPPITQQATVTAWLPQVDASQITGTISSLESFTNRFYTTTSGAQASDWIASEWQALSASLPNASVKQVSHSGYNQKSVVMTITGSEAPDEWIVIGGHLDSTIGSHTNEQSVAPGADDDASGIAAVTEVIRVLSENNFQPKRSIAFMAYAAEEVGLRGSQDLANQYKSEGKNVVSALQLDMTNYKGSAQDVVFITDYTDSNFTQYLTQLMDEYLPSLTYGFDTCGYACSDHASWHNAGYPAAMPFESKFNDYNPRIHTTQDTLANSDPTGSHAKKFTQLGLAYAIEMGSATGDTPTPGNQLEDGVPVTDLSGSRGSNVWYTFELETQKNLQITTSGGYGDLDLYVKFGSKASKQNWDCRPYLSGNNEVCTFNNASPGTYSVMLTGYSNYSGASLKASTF

For the molecule `NC1CCc2ccccc2CC1=O` (stereo unspecified), the IC50 in test [1] came out at 900 µM. Regarding `N[C@H]1Cc2ccccc2CC(=O)[C@H]1O` (racemic), the inhibition constant (Ki) in test [1] worked out at 0.01 µM. The IC50 at Aminopeptidase N is greater than 1000 µM.

On to `N[C@@H]1C(=O)Cc2ccccc2C[C@@H]1O` (racemic), for which the 50% inhibitory concentration (IC50) (in test [1]; at Aminopeptidase N) was greater than 1000 µM each time.

Consider `N[C@H]1Cc2ccccc2C[C@@H](O)C1=O` (racemic), for which the inhibition constant (Ki) in test [1] stood at 4 µM. Moreover, the IC50 at Aminopeptidase N is greater than 100 µM.

For the molecule `N[C@@H]1[C@H](O)Cc2ccccc2C[C@@H]1O`, in test [1], the Ki was 78 µM. At Aminopeptidase N, the IC50 is greater than 1000 µM. `N[C@H]1Cc2ccccc2C[C@H](O)C1=O` (racemic): the results for the Ki (in test [1]; on Aminopeptidase N) were 24 µM and 42 µM, respectively.

(Values after ChEMBL document CHEMBL2440033, “Synthesis of amino-hydroxy-benzocycloheptenones as potent, selective, non-peptidic dinuclear zinc metalloaminopeptidase inhibitors” (Bioorg Med Chem, 2013).)
